Molecular target: Kv7.2/7.3 (Homo sapiens, UniProt O43525+O43526)
Assay: Kv7.2/7.3 Thallium Flux Assay
Type: cell-based
Set-up: host or cells: HEK cells, tetracycline-inducible expression
Details: read-out: Kv7.2/7.3 Activity: EC50 of Kv7.2/Kv7.3 activation
Method in brief: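 Tetracycline-induced (10 ng/mL) hKv7.2/7.3 cell line tested over eight concentrations, 0.014–30 μM, in 0.1% DMSO extracellular solution; FluxOR II thallium-sensitive dye read at Ex 475/Em 530 nm. After 15 sec baseline, thallium/potassium stimulus injected, endpoint at 90 sec; responses normalized to retigabine ([…] max), Hill fit gave EC50 and maximal response.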

EC50 | SMILES
1 to 3 µM | CC(C)(CC(=O)Nc1nc2ccc(C#N)cc2n1C1CCC1)c1ccccn1 [Example 518, N-(6-cyano-1-cyclobutyl-1H-benzo[d]imidazol-2-yl)-3-methyl-3-(pyridin-2-yl)butanamide]
< 1 µM | [2H]C([2H])([2H])C(CC(=O)Nc1nc2c(F)cc(C#N)cc2n1C1(C)CCC1)(C([2H])([2H])[2H])C([2H])([2H])[2H] [Example 521, N-(6-cyano-4-fluoro-1-(1-methylcyclobutyl)-1H-benzo[d]imidazol-2-yl)-3,3-bis(methyl-d3)butanamide]
< 1 µM | CC1(n2c(NC(=O)CC3(C(F)(F)F)CC3)nc3cc(F)ccc32)CCC1 [Example 527, N-(5-fluoro-1-(1-methylcyclobutyl)-1H-benzo[d]imidazol-2-yl)-2-(1-(trifluoromethyl)cyclopropyl)acetamide]
< 1 µM | CC(C)(C)n1c(NC(=O)CC(C)(C)C(F)(F)F)nc2cc(F)cc(F)c21 [Example 530, N-(1-(tert-butyl)-5,7-difluoro-1H-benzo[d]imidazol-2-yl)-4,4,4-trifluoro-3,3-dimethylbutanamide]
< 1 µM | CC(C)(C)n1c(NC(=O)CC2(C(F)(F)F)CC2)nc2cc(F)cc(F)c21 [Example 531, N-(1-(tert-butyl)-5,7-difluoro-1H-benzo[d]imidazol-2-yl)-2-(1-(trifluoromethyl)cyclopropyl)acetamide]
< 1 µM | CC(C)(CC(=O)Nc1nc2cc(F)c(F)cc2n1C1(C)CCC1)C(F)F [Example 533, N-(5,6-difluoro-1-(1-methylcyclobutyl)-1H-benzo[d]imidazol-2-yl)-4,4-difluoro-3,3-dimethylbutanamide]
< 1 µM | CC1(n2c(NC(=O)CC3(C(F)(F)F)CC3)nc3cc(F)c(F)cc32)CCC1 [Example 538, N-(5,6-difluoro-1-(1-methylcyclobutyl)-1H-benzo[d]imidazol-2-yl)-2-(1-(trifluoromethyl)cyclopropyl)acetamide]
< 1 µM | CC(C)(CC(=O)Nc1nc2cc(F)cc(C#N)c2n1C1(C)CCC1)C1CC1 [Example 547, N-(7-cyano-5-fluoro-1-(1-methylcyclobutyl)-1H-benzo[d]imidazol-2-yl)-3-cyclopropyl-3-methylbutanamide]

Further lines, the compound ahead of its results:

SMILES | EC50
CC(C)(C)CC(=O)Nc1nc2c(F)cc(C#N)c(F)c2n1C1(C)CCC1 [Example 517, N-(6-cyano-4,7-difluoro-1-(1-methylcyclobutyl)-1H-benzo[d]imidazol-2-yl)-3,3-dimethylbutanamide] | < 1 µM
COc1cc(C#N)cc2c1nc(NC(=O)CC1(C(F)(F)F)CC1)n2C(C)(C)C [Example 520, N-(1-(tert-butyl)-6-cyano-4-methoxy-1H-benzo[d]imidazol-2-yl)-2-(1-(trifluoromethyl)cyclopropyl)acetamide] | 3 to 10 µM
CC1(n2c(NC(=O)CC3(C(F)(F)F)CC3)nc3cc(F)cc(F)c32)CCC1 [Example 522, N-(5,7-difluoro-1-(1-methylcyclobutyl)-1H-benzo[d]imidazol-2-yl)-2-(1-(trifluoromethyl)cyclopropyl)acetamide] | < 1 µM
CC(C)(CC(=O)Nc1nc2cc(F)ccc2n1C1(C)CCC1)C(F)F [Example 524, 4,4-difluoro-N-(5-fluoro-1-(1-methylcyclobutyl)-1H-benzo[d]imidazol-2-yl)-3,3-dimethylbutanamide] | < 1 µM
CC1(n2c(NC(=O)CC3(C(F)(F)F)CC3)nc3cc(F)c(F)c(F)c32)CCC1 [Example 534, N-(5,6,7-trifluoro-1-(1-methylcyclobutyl)-1H-benzo[d]imidazol-2-yl)-2-(1-(trifluoromethyl)cyclopropyl)acetamide] | < 1 µM
CC(C)(CC(=O)Nc1nc2ccc(F)c(C#N)c2n1C1(C)CCC1)C1CC1 [Example 541, N-(7-cyano-6-fluoro-1-(1-methylcyclobutyl)-1H-benzo[d]imidazol-2-yl)-3-cyclopropyl-3-methylbutanamide] | < 1 µM

From patent US10851067B2, “Kv7 channel activators compositions and methods of use” (Knopp Biosciences LLC, priority 2018, dated 2020)
